{
  "source": "patent US11491162B2",
  "about": "“Combination of quinoline-4-carboxamides and benzonaphthyridine derivatives as antimalarial drug combination” (Merck Patent GmbH, priority 2018, dated 2022)",
  "key": {"[1]": {"biological_target": "T1, P-gp (Homo sapiens, UniProt P08183)", "T1 construct": "In Caco-2 monolayer cells, M1 is effluxed by P-gp transporters with a ratio of 18.2; endogenous in cells; host or cells: Caco-2 cells, differentiated monolayers on polycarbonate filter inserts", "T1 sequence (P08183 whole entry)": "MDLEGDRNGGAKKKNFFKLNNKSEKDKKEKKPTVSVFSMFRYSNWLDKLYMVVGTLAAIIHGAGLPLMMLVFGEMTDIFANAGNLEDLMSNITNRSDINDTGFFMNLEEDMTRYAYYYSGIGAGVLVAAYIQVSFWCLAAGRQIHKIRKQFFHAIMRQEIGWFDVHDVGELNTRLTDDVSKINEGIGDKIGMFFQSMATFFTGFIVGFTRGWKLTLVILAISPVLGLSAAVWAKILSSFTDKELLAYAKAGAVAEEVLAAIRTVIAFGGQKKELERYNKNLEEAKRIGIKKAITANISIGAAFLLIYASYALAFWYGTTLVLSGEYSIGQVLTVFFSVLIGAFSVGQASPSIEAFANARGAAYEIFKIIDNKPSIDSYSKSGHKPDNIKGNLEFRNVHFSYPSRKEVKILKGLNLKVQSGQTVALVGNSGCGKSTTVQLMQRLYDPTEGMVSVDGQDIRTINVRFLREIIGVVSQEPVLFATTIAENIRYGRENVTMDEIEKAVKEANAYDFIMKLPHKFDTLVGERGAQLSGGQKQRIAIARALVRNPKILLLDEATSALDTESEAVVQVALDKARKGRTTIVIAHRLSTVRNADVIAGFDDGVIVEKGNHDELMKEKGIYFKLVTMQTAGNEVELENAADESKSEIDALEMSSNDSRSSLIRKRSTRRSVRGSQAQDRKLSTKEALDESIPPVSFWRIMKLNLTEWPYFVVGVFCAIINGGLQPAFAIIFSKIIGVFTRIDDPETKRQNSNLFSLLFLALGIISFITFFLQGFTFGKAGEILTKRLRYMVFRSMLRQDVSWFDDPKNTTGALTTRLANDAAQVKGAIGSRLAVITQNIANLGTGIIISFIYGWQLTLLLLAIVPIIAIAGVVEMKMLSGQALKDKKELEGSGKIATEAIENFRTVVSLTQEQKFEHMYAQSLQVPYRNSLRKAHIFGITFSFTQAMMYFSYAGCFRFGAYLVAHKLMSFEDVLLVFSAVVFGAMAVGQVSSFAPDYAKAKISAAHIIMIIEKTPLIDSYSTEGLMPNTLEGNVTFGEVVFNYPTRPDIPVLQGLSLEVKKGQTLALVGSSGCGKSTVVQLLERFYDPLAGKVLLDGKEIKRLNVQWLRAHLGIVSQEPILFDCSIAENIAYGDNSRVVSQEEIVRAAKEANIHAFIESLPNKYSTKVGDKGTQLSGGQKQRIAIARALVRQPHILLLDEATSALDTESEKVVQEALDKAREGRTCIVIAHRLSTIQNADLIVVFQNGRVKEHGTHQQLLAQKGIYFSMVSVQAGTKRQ", "test": "Inhibition of Pgp-mediated efflux of M1 in Caco-2 monolayer", "type": "cell-based", "settings": "M1 as substrate"}, "[2]": {"system": "P. falciparum Pf3D7^0087/N9", "test": "In vivo SCID mouse model, oral therapeutic efficacy", "set-up": "species or system Plasmodium falciparum", "settings": "for % control: day 7; for Activity: day 7 vs untreated control", "protocol": "Compound efficacy was assessed against the Plasmodium falciparum strain Pf3D7^0087/N9 in vivo. Mice are infected intravenously with parasitized red blood cells on day 0. Experimental mice are generally treated at day 3, 4, 5, and 6 post-infection with an oral dose of the compound (single or 4-day oral dosing regimen) and are compared to an infected control group for reduction in parasitemia on day 7 (Maria Belen Jimenez-Díaz, Teresa Mulet, Sara Viera, Vanessa Gomez, Helen Garuti, Javier Ibanez, Angela Alvarez-Doval, Leonard D. Shultz, Antonio Martínez, Domingo Gargallo-Viola, and Inigo Angulo-Barturen, Improved Murine Model of Malaria Using Plasmodium falciparum Competent Strains and Non-Myelodepleted NOD-scid IL2Rgammanull Mice Engrafted with Human Erythrocytes, Antimicrob Agents Chemother. 2009, 53:4533).\nPYRO and M1 were solubilized in a vehicle consisting of 70% Tween-80 and 30% ethanol, followed by a 10-fold dilution in H2O."}, "[3]": {"settings": "PYRO 4 × 1 MG/KG oral, SCID mice, Table 2"}, "[4]": {"settings": "PYRO 4 × 3 MG/KG oral, SCID mice, Table 2"}, "[5]": {"settings": "PYRO 4 × 9 MG/KG oral, SCID mice, Table 2"}, "[6]": {"settings": "Table 4 entry 3: M1 0 mg/kg, PYRO 4 × 3 mg/kg, oral"}, "[7]": {"settings": "Table 4 entry 3: M1 0 mg/kg, PYRO 4 × 3 mg/kg, oral, LLQ = <0.01% parasitemia"}, "[8]": {"settings": "Table 4 entry 5: M1 0 mg/kg, PYRO 4 × 9 mg/kg, oral"}, "[9]": {"settings": "Table 4 entry 5: M1 0 mg/kg, PYRO 4 × 9 mg/kg, oral, LLQ = <0.01% parasitemia"}, "[10]": {"settings": "Table 4 entry 7: M1 0 mg/kg, PYRO 4 × 30 mg/kg, oral"}, "[11]": {"settings": "Table 4 entry 7: M1 0 mg/kg, PYRO 4 × 30 mg/kg, oral, LLQ = <0.01% parasitemia"}},
  "note": "Structures can show the parent of a compound that is named as a salt.",
  "data": [
    {"smiles": "COc1ccc2nc3cc(Cl)ccc3c(Nc3cc(CN4CCCC4)c(O)c(CN4CCCC4)c3)c2n1", "note": "[PYRO, pyronaridine tetraphosphate salt]", "values": [
      {"measurement": "concentrations at which PYRO inhibited Pgp-mediated efflux of M1", "setting": "[1]", "value": "greater than 10 μM"},
      {"measurement": "% PARASITEMIA day 3 post infection", "setting": "[2]; [3]", "value": 0.63, "unit": "%"},
      {"measurement": "% PARASITEMIA day 4 post infection", "setting": "[2]; [3]", "value": 1.21, "unit": "%"},
      {"measurement": "% PARASITEMIA day 5 post infection", "setting": "[2]; [3]", "value": 3.14, "unit": "%"},
      {"measurement": "% PARASITEMIA day 6 post infection", "setting": "[2]; [3]", "value": 4.53, "unit": "%"},
      {"measurement": "% PARASITEMIA day 7 post infection", "setting": "[2]; [3]", "value": 7.55, "unit": "%"},
      {"measurement": "% control", "setting": "[2]; PYRO 4 × 1 MG/KG oral, SCID mice", "value": 82.6, "unit": "%"},
      {"measurement": "Activity", "setting": "[2]; PYRO 4 × 1 MG/KG oral, SCID mice, 1 mg/kg", "value": 17.4, "unit": "%"},
      {"measurement": "Activity", "setting": "[2]; PYRO 4 × 1 MG/KG oral, SCID mice, listed as pyronaridine, 1 mg/kg", "value": 17, "unit": "%"},
      {"measurement": "% PARASITEMIA day 3 post infection", "setting": "[2]; [4]", "value": 0.71, "unit": "%"},
      {"measurement": "% PARASITEMIA day 4 post infection", "setting": "[2]; [4]", "value": 1, "unit": "%"},
      {"measurement": "% PARASITEMIA day 5 post infection", "setting": "[2]; [4]", "value": 0.44, "unit": "%"},
      {"measurement": "% PARASITEMIA day 6 post infection", "setting": "[2]; [4]", "value": 0.25, "unit": "%"},
      {"measurement": "% PARASITEMIA day 7 post infection", "setting": "[2]; [4]", "value": 0.04, "unit": "%"},
      {"measurement": "% control", "setting": "[2]; PYRO 4 × 3 MG/KG oral, SCID mice", "value": 0.4, "unit": "%"},
      {"measurement": "Activity", "setting": "[2]; PYRO 4 × 3 MG/KG oral, SCID mice, 3 mg/kg", "value": 99.6, "unit": "%"},
      {"measurement": "Activity", "setting": "[2]; PYRO 4 × 3 MG/KG oral, SCID mice, listed as pyronaridine, 3 mg/kg", "value": 99.6, "unit": "%"},
      {"measurement": "% PARASITEMIA day 3 post infection", "setting": "[2]; [5]", "value": 0.7, "unit": "%"},
      {"measurement": "% PARASITEMIA day 4 post infection", "setting": "[2]; [5]", "value": 0.28, "unit": "%"},
      {"measurement": "% PARASITEMIA day 5 post infection", "setting": "[2]; [5]", "value": 0.15, "unit": "%"},
      {"measurement": "% PARASITEMIA day 6 post infection", "setting": "[2]; [5]", "value": 0.063, "unit": "%"},
      {"measurement": "% PARASITEMIA day 7 post infection", "setting": "[2]; PYRO 4 × 9 MG/KG oral, SCID mice, Table 2, LLQ = <0.01% parasitemia, 9 mg/kg", "value": "<LLQ"},
      {"measurement": "% PARASITEMIA day 7 post infection", "setting": "[2]; PYRO 4 × 9 MG/KG oral, SCID mice, Table 2, LLQ = <0.01% parasitemia, listed as pyronaridine, 9 mg/kg", "value": "parasite-free"},
      {"measurement": "% control", "setting": "[2]; PYRO 4 × 9 MG/KG oral, SCID mice, LLQ = <0.01% parasitemia", "value": "<LLQ"},
      {"measurement": "Activity", "setting": "[2]; PYRO 4 × 9 MG/KG oral, SCID mice, 9 mg/kg", "value": 100, "unit": "%"},
      {"measurement": "Activity", "setting": "[2]; PYRO 4 × 9 MG/KG oral, SCID mice, listed as pyronaridine, 9 mg/kg", "value": "> 99.9", "unit": "%"},
      {"measurement": "% PARASITEMIA day 3 post infection", "setting": "[2]; [6]", "value": 1.16, "unit": "%"},
      {"measurement": "% PARASITEMIA day 4 post infection", "setting": "[2]; [6]", "value": 0.67, "unit": "%"},
      {"measurement": "% PARASITEMIA day 5 post infection", "setting": "[2]; [6]", "value": 0.08, "unit": "%"},
      {"measurement": "% PARASITEMIA day 6 post infection", "setting": "[2]; [6]", "value": 0.01, "unit": "%"},
      {"measurement": "% PARASITEMIA day 7 post infection", "setting": "[2]; [7]", "value": "<LLQ"},
      {"measurement": "% PARASITEMIA day 10 post infection", "setting": "[2]; [7]", "value": "<LLQ"},
      {"measurement": "% PARASITEMIA day 3 post infection", "setting": "[2]; [8]", "value": 1.09, "unit": "%"},
      {"measurement": "% PARASITEMIA day 4 post infection", "setting": "[2]; [8]", "value": 0.34, "unit": "%"},
      {"measurement": "% PARASITEMIA day 5 post infection", "setting": "[2]; [8]", "value": 0.05, "unit": "%"},
      {"measurement": "% PARASITEMIA day 6 post infection", "setting": "[2]; [9]", "value": "<LLQ"},
      {"measurement": "% PARASITEMIA day 7 post infection", "setting": "[2]; [9]", "value": "<LLQ"},
      {"measurement": "% PARASITEMIA day 10 post infection", "setting": "[2]; [9]", "value": "<LLQ"},
      {"measurement": "% PARASITEMIA day 3 post infection", "setting": "[2]; [10]", "value": 1.13, "unit": "%"},
      {"measurement": "% PARASITEMIA day 4 post infection", "setting": "[2]; [10]", "value": 0.14, "unit": "%"},
      {"measurement": "% PARASITEMIA day 5 post infection", "setting": "[2]; [10]", "value": 0.02, "unit": "%"},
      {"measurement": "% PARASITEMIA day 6 post infection", "setting": "[2]; [10]", "value": 0.01, "unit": "%"},
      {"measurement": "% PARASITEMIA day 7 post infection", "setting": "[2]; [11]", "value": "<LLQ"},
      {"measurement": "% PARASITEMIA day 10 post infection", "setting": "[2]; [11]", "value": "<LLQ"}
    ]}
  ]
}
